Measurements as given in article PMC8611036, “An integrated method for optimized identification of effective natural inhibitors against SARS-CoV-2 3CLpro” (Scientific Reports, 2021).
Read-outs that look alike come from different tables or passages of the source.

Tests used:
SARS-CoV-2 3CLpro [1] = molecular target: T1, SARS-CoV-2 3CLpro (Severe acute respiratory syndrome coronavirus 2, UniProt P0DTD1); experiment: Surface plasmon resonance analysis (Biacore T200); type: binding
SARS-CoV-2 3CLpro [2] = molecular target: T1, SARS-CoV-2 3CLpro; experiment: Literature-collected IC50 of SARS-CoV-2 3CLpro inhibitors (test set); type: biochemical; settings: class from pIC50 of the literature IC50
SARS-CoV 3CLpro [3] = type: biochemical; settings: activity class by pIC50 threshold 6
SARS-CoV-2 3CLpro [4] = molecular target: T1, SARS-CoV-2 3CLpro; settings: cited from earlier work; for IC50: unit not printed (pIC50 corresponds to µM)
SARS-CoV 3CLpro [5] = settings: SARS-CoV 3CLpro inhibitors (training set), ref: per compound, cited from earlier work; for pIC50: from literature IC50; for IC50: literature values
[6] = ref TCMSP database, cited from earlier work; for HBA: number of hydrogen-bond acceptors; for HBD: number of hydrogen-bond donors; for OB (%): oral bioavailability
SARS-CoV-2 3CLpro [7] = molecular target: T1, SARS-CoV-2 3CLpro; experiment: SARS-CoV-2 3CLpro inhibition assay (fluorogenic substrate Dabcyl-[…]-Edans); type: biochemical
SARS-CoV-2 3CLpro [8] = molecular target: T1, SARS-CoV-2 3CLpro; settings: SARS-CoV pIC50 multiplied by similarity index (SI), training set compounds
[9] = SPR, 25 °C, 3CLpro-his captured on CM7 chip, read-out: KD
[10] = from literature IC50, ref Zhu, Wei et al. ACS pharmacology & translational science vol. 3,5 (2020): 1008-1016
[11] = ref Zhu, Wei et al. ACS pharmacology & translational science vol. 3,5 (2020): 1008-1016
[12] = from literature IC50, ref Jo, Seri et al. Journal of enzyme inhibition and medicinal chemistry vol. 35,1 (2020): 1539-1544
[13] = ref Jo, Seri et al. Journal of enzyme inhibition and medicinal chemistry vol. 35,1 (2020): 1539-1544
[14] = SARS-CoV-2 3CLpro in vitro dose–response inhibition, read-out: IC50

## COc1cc(-c2oc3cc(O)cc(O)c3c(=O)c2O[C@@H]2O[C@H](CO)[C@@H](O)[C@H](O)[C@H]2O)ccc1O [MOL007260]
SARS-CoV-2 3CLpro [1]; [9]
  Kd: 9.45 µM

## Cc1cc(O)c2c(=O)c3c(O)cc(O)c4c5c(O)cc(O)c6c(=O)c7c(O)cc(C)c8c1c2c(c34)c(c78)c65 [MOL002067]
SARS-CoV-2 3CLpro [1]
  Kd: 19.9 µM

## O=C(O)c1ccccc1-c1ccc(/C=C2\C(=O)N(c3ccccc3)N=C2c2ccccc2)o1 [CMP13, reference compound]
SARS-CoV-2 3CLpro [2]
  Inact.(<6)/Act.(>=6): Inact. (Inact.(<6))
SARS-CoV 3CLpro [3]
  Inact.(<6)/Act.(>=6): Inact. (Inact.(<6))
SARS-CoV-2 3CLpro [4]; [10]
  pIC50: 5.4828
SARS-CoV-2 3CLpro [4]; [11]
  IC50: 3.29 µM
SARS-CoV 3CLpro [5]
  pIC50: 4.3851
  IC50: 41.2 µM

## OC[C@@H](O)[C@@H](O)[C@H](O)[C@H](O)CO [MOL000003, MTL]
[6]
  HBA: 6
  HBD: 6
  OB (%): 17.73%
  BBB: -4.07
  Caco-2: -1.58
  FASA-: 0.18
  NRotB: 5

## O=c1cc(-c2ccc(O)c(O)c2)oc2cc(O)cc(O)c12 [MOL000006, luteolin]
[6]
  HBA: 6
  HBD: 4
  OB (%): 36.16%
  BBB: -0.84
  Caco-2: 0.19
  FASA-: 0.39
  HL: 15.94
  NRotB: 1

## O=c1cc(-c2ccc(O)cc2)oc2c([C@@H]3O[C@H](CO)[C@@H](O)[C@H](O)[C@H]3O)c(O)c([C@@H]3OC[C@H](O)[C@H](O)[C@H]3O)c(O)c12 [Isoschaftoside, isoschaftoside]
SARS-CoV-2 3CLpro [7]
  IC50: 30.2 µM
SARS-CoV-2 3CLpro [1]
  Kd: 11.4 µM

## COc1ccc(-c2cc(=O)c3c(O)c(OC)c(OC4OC(COC5OC(C)C(O)C(O)C5O)C(O)C(O)C4O)cc3o2)cc1 (stereo not drawn) [CMP84]
SARS-CoV-2 3CLpro [2]
  Inact.(<6)/Act.(>=6): Inact. (Inact.(<6))
SARS-CoV-2 3CLpro [4]; [12]
  pIC50: 4.287
SARS-CoV-2 3CLpro [4]; [13]
  IC50: 51.6 µM

## O=C(/C=C/c1ccc(O)c2c1[C@H](C(=O)O[C@H](Cc1ccc(O)c(O)c1)C(=O)O)[C@@H](c1ccc(O)c(O)c1)O2)O[C@H](Cc1ccc(O)c(O)c1)C(=O)O [MOL007060]
SARS-CoV-2 3CLpro [1]
  Kd: 64 µM

## C[C@@H]1O[C@@H](OC[C@H]2O[C@@H](OCCc3ccc(O)c(O)c3)[C@H](O)[C@@H](O)[C@@H]2OC(=O)/C=C/c2ccc(O)c(O)c2)[C@H](O)[C@H](O)[C@H]1O [MOL003331]
SARS-CoV-2 3CLpro [1]
  Kd: 1.21 µM

## COc1cc(-c2oc3cc(O)cc(O)c3c(=O)c2O[C@@H]2O[C@H](CO[C@@H]3O[C@@H](C)[C@H](O)[C@@H](O)[C@H]3O)[C@@H](O)[C@H](O)[C@H]2O)ccc1O [Narcissoside, narcissoside]
SARS-CoV-2 3CLpro [7]; [14]
  IC50: 38.1 µM
SARS-CoV-2 3CLpro [1]; [9]
  Kd: 10 µM

## C[C@@H]1O[C@@H](OC[C@H]2O[C@@H](Oc3c(-c4ccc(O)cc4)oc4cc(O)cc(O)c4c3=O)[C@H](O)[C@@H](O)[C@@H]2O)[C@H](O)[C@H](O)[C@H]1O [MOL002693]
SARS-CoV-2 3CLpro [1]
  Kd: 3.63 µM

## C[C@@H]1O[C@@H](O[C@H]2[C@H](O[C@H]3CC[C@@]4(C)[C@@H](CC[C@]5(C)[C@H]4CC=C4[C@H]6CC(C)(C)CC[C@]6(C(=O)O[C@@H]6O[C@H](CO[C@@H]7O[C@H](CO)[C@@H](O)[C@H](O)[C@H]7O)[C@@H](O)[C@H](O)[C@H]6O)CC[C@]45C)[C@]3(C)CO)OC[C@H](O)[C@@H]2O)[C@H](O)[C@H](O)[C@H]1O [MOL003034]
SARS-CoV-2 3CLpro [1]
  Kd: 10.9 µM

## O=C(/C=C/c1ccc(O)c2c1[C@H](C(=O)O)[C@@H](c1ccc(O)c(O)c1)O2)O[C@H](Cc1ccc(O)c(O)c1)C(=O)O [MOL007113]
SARS-CoV-2 3CLpro [1]
  Kd: 15 µM

## O=C(/C=C/c1ccc(O)c(O)c1)O[C@@H]1C[C@@](OC(=O)/C=C/c2ccc(O)c(O)c2)(C(=O)O)C[C@@H](O)[C@@H]1O [MOL007326]
SARS-CoV-2 3CLpro [1]; [9]
  Kd: 20.3 µM

## C[C@@H]1O[C@@H](O[C@@H]2[C@@H](O)[C@H](OCCc3ccc(O)c(O)c3)O[C@H](CO)[C@H]2OC(=O)/C=C/c2ccc(O)c(O)c2)[C@H](O)[C@H](O)[C@H]1O [MOL003333]
SARS-CoV-2 3CLpro [1]
  Kd: 0.409 µM

## O=C1/C(=C\c2ccc(-c3ccccc3)o2)C(c2ccccc2)=NN1c1ccccc1 [CMP10]
SARS-CoV-2 3CLpro [2]
  Inact.(<6)/Act.(>=6): Inact. (Inact.(<6))
SARS-CoV 3CLpro [3]
  Inact.(<6)/Act.(>=6): Inact. (Inact.(<6))
SARS-CoV-2 3CLpro [4]; [10]
  pIC50: 4.652
SARS-CoV-2 3CLpro [4]; test set (SARS-CoV-2 3CLpro inhibitors), collected from literature
  pIC50: 4.652
SARS-CoV-2 3CLpro [4]; [11]
  IC50: 22.3 µM

## O=c1c(O)c(-c2ccc(O)cc2)oc2cc(O)cc(O)c12 [MOL000422]
SARS-CoV-2 3CLpro [1]; [9]
  Kd: 24.6 µM

## O=c1cc(-c2ccc(O)cc2)oc2cc(O)cc(O)c12 [MOL000008, apigenin]
[6]
  HBA: 5
  HBD: 3
  OB (%): 23.06%
  BBB: -0.61
  Caco-2: 0.43
  FASA-: 0.41
  NRotB: 1

## O=C(/C=C/c1ccc(O)c(O)c1)O[C@H]1[C@H](O)C[C@](O)(C(=O)O)C[C@H]1OC(=O)/C=C/c1ccc(O)c(O)c1 [MOL001878]
SARS-CoV-2 3CLpro [1]; [9]
  Kd: 0.047 µM

## C[C@@H](CC[C@]1(O)O[C@H]2C[C@H]3[C@@H]4CC[C@@H]5C[C@@H](O[C@@H]6O[C@H](CO)[C@H](O)[C@H](O)[C@H]6O[C@@H]6O[C@H](CO)[C@@H](O)[C@H](O)[C@H]6O)CC[C@]5(C)[C@H]4CC[C@]3(C)[C@H]2[C@@H]1C)CO[C@@H]1O[C@H](CO)[C@@H](O)[C@H](O)[C@H]1O [MOL004515]
SARS-CoV-2 3CLpro [1]
  Kd: 7.2 µM

## O=c1c(O)c(-c2ccc(O)cc2)oc2c(O)c(O)cc(O)c12 [CMP83]
SARS-CoV-2 3CLpro [2]
  Inact.(<6)/Act.(>=6): Inact. (Inact.(<6))
SARS-CoV-2 3CLpro [4]; [12]
  pIC50: 4.268
SARS-CoV-2 3CLpro [4]; [13]
  IC50: 53.9 µM

## O=c1cc(-c2ccc(O)cc2)oc2c([C@@H]3O[C@H](CO)[C@@H](O)[C@H](O)[C@H]3O)c(O)c([C@@H]3O[C@H](CO)[C@@H](O)[C@H](O)[C@H]3O)c(O)c12 [Vicenin-2, vicenin-2]
SARS-CoV-2 3CLpro [7]
  IC50: 38.9 µM
SARS-CoV-2 3CLpro [1]
  Kd: 8.58 µM

## O=c1c(O[C@@H]2O[C@H](CO)[C@H](O)[C@H](O)[C@H]2O)c(-c2ccc(O)c(O)c2)oc2cc(O)cc(O)c12 [MOL004368]
SARS-CoV-2 3CLpro [1]; [9]
  Kd: 9.98 µM

## O=c1c(O[C@@H]2O[C@H](CO[C@@H]3O[C@H](CO)[C@@H](O)[C@H](O)[C@H]3O)[C@@H](O)[C@H](O)[C@H]2O)c(-c2ccc(O)cc2)oc2cc(O)cc(O)c12 [Kaempferol-3-O-gentiobioside, kaempferol-3-O-gentiobioside]
SARS-CoV-2 3CLpro [7]; [14]
  IC50: 35.9 µM
SARS-CoV-2 3CLpro [1]; [9]
  Kd: 2.69 µM

## O=C1C(=O)N(Cc2ccccc2)c2ccc(S(=O)(=O)N3CCCCC3)cc21 [CMP176]
SARS-CoV 3CLpro [3]
  Inact.(<6)/Act.(>=6): Inact. (Inact.(<6))
SARS-CoV-2 3CLpro [8]
  SI*pIC50: 5.006
SARS-CoV 3CLpro [5]
  pIC50: 4.854
  IC50: 14 µM

## cyanidol [MOL000002]
[6]
  HBA: 6
  HBD: 5
  OB (%): 1.36%
  BBB: -0.51
  FASA-: 0.34
  NRotB: 1

## O=C(Oc1cncc(Cl)c1)c1cc2ccccc2o1 [CMP169]
SARS-CoV 3CLpro [3]
  Inact.(<6)/Act.(>=6): Act. (Act.(>=6))
SARS-CoV-2 3CLpro [8]
  SI*pIC50: 6.921
SARS-CoV 3CLpro [5]
  pIC50: 6.77
  IC50: 0.17 µM

## O=c1cc(-c2ccc(O)cc2)oc2cc(O[C@@H]3O[C@H](CO)[C@@H](O)[C@H](O)[C@H]3O)cc(O)c12 [MOL000007, Cosmetin]
[6]
  HBA: 10
  HBD: 6
  OB (%): 9.68%
  BBB: -2.26
  Caco-2: -1.08
  FASA-: 0.32
  NRotB: 4

## O=c1c(O[C@@H]2O[C@H](CO)[C@@H](O)[C@H](O)[C@H]2O[C@@H]2O[C@H](CO)[C@@H](O)[C@H](O)[C@H]2O)c(-c2ccc(O)cc2)oc2cc(O)cc(O)c12 [MOL002761]
SARS-CoV-2 3CLpro [1]; [9]
  Kd: 12.5 µM

## CCC(C)c1ccc(N(C(=O)c2ccco2)C(C(=O)NC2CCCC2)c2cccnc2)cc1 (stereo not drawn) [CMP144]
SARS-CoV 3CLpro [3]
  Inact.(<6)/Act.(>=6): Inact. (Inact.(<6))
SARS-CoV-2 3CLpro [8]
  SI*pIC50: 5.809
SARS-CoV 3CLpro [5]
  pIC50: 5.658
  IC50: 2.2 µM

## CN(C)c1ccc(C(=O)N[C@@H](Cc2ccccc2)C(=O)Nc2ccc([N+](=O)[O-])cc2Cl)cc1 [CMP119]
SARS-CoV 3CLpro [3]
  Inact.(<6)/Act.(>=6): Act. (Act.(>=6))
SARS-CoV-2 3CLpro [8]
  SI*pIC50: 7.374
SARS-CoV 3CLpro [5]
  pIC50: 7.222
  IC50: 0.06 µM
